Measurements from US20220088100A1, “COSMETIC, PHARMACEUTICAL AND NUTRACEUTICAL USE OF AN EXTRACT DERIVED FROM CANNABISSATIVA CELL CULTURES” (ARTERRA BIOSCIENCE S.P.A., priority 2018, published 2022).
Where a name gives a salt, the structure may show the parent alone.

Tested on: histamine production in RAW 264.7 cells (macrophages)
Assay: Histamine content in macrophages stressed with CGRP
Type: cell-based
Details: RAW 264.7, 50 μg/ml 2 h, then 10 nM CGRP 16 h; reduction compared with that of the extract
Experimental: To determine whether the plant cell culture extract according to the invention was able to reduce the production of histamine induced by the CGRP peptide in the immune system cells, an assay was conducted for the quantization of the histamine content in macrophages subjected to a stress condition by the CGRP neuropeptide.
RAW 264.7 cells were seeded in 96-well plates in an initial number of 5×10^4, and after 16 h, they were treated with different doses of the extract or with the anti-histamine compound cetirizine dihydrochloride (50 μg/ml), used as a positive control of the experiment. After 2 h of treatment with the extract or with cetirizine, the production of histamine was induced by the treatment with 10 nM of CGRP and, after 16 h, the amount of histamine was measured by adding 100 μl of methanol containing 0.4 M NaOH and 1 mg/ml of o-Phthaldialdehyde (OPT). After 10 minutes of incubation at room temperature, 50 μl of 0.1M HCl was added to each well to stop the reaction. Fluorescence was measured at 443 nm using a 360 nm excitation wavelength from the multi-plate reader, Victor3 (Perkin Elmer). The histamine content was calculated as a percentage of the value of the control cells stressed with 10 nM CGRP, arbitrarily set as 100%.

O=C(O)COCCN1CCN(C(c2ccccc2)c2ccc(Cl)cc2)CC1 (stereo not shown) [cetirizine, cetirizine dihydrochloride]
production of histamine in macrophages, positive control: similarly
